The term IC50 denotes the concentration that inhibits the measured activity by half.

SMILES strings stand for the structures.

The target in assay [1] is T1, EPAC1 (Homo sapiens, UniProt O95398).
T1 sequence (O95398 1-923): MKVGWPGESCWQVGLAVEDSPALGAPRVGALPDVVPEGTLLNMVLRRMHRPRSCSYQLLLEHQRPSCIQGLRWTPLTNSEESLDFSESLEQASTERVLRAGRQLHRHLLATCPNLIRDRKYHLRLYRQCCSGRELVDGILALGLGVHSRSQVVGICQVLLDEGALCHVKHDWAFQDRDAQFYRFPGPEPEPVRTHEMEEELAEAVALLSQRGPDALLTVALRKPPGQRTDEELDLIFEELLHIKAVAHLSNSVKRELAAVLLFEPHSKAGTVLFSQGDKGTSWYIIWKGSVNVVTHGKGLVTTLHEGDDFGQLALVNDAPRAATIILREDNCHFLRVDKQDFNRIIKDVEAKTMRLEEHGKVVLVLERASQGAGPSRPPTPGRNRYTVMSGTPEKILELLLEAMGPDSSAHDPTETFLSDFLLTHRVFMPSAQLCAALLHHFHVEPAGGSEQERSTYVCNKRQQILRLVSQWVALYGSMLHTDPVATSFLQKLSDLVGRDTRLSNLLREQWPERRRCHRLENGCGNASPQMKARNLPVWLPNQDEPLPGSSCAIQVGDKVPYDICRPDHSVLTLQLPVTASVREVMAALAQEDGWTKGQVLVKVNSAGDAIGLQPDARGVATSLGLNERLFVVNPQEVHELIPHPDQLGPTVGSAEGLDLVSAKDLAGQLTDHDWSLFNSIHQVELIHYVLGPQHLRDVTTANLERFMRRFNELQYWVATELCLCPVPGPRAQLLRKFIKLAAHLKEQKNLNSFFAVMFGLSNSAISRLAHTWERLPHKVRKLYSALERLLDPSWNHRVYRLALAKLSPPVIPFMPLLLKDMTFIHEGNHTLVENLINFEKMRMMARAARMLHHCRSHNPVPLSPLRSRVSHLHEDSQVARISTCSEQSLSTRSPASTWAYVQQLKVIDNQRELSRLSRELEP
In words: EPAC1 immunoprecipitation with activation-selective antibody in HEK293T cells. Format: cell-based. More on the design: expressed in transfected cells. Conditions: versus vehicle-treated control, FIG. 10. On the procedure:
FIG. 10. Ability of selected compounds to interact with EPAC1 in cells. HEK293T cells stably transfected with EPAC1 were treated with hit compounds from the screen. EPAC1 was immunoprecipitated from cell lysates using an activation-selective antibody, visualized by western blotting and its levels were quantified densitometrically. Cyclic nucleotide EPAC1 agonist 2 was used as positive control. […] Data from at least three independent experiments are presented in the bar graph as mean ± SEM with significant increases in immunoprecipitated EPAC1 levels in comparison to vehicle-treated control indicated; ^∗∗ p < 0.01, ^∗∗∗ p < 0.001.
(§1) SDS-PAGE and Western Blotting. Samples were prepared by mixing equal volumes of cell lysate and 2x SDS sample loading buffer and denaturing for 5 min at 95° C., unless indicated otherwise. Protein samples were separated by SDS-PAGE on 10% (v/v) polyacrylamide gels, for EPAC1 and VASP, or on 12.5% (v/v), for Rap1, and then transferred to nitrocellulose membranes. Membranes were then blocked for 1 h at room temperature in 5% (w/v) non-fat dry milk or 5% (w/v) BSA in Tris-buffered saline containing 0.1% (v/v) Tween 20, followed by an overnight incubation with primary antibody diluted in blocking buffer at 4° C. Subsequently, the membranes were incubated with appropriate horseradish peroxidase-conjugated secondary antibodies for 1 h at room temperature. For signal detection the SuperSignal West Pico PLUS Chemiluminescent Substrate (Thermo Scientific) was used. Images were acquired using the Fusion FX7 camera platform (Vilber). Densitometry was performed with ImageJ.

Another assay has as its system PKA. In words: PKA activation (VASP phosphorylation, western blot) in U2OS-EPAC1 cells. Format: cell-based. Conditions: 100 µM test compound, FIG. 5. Here is the method:
FIG. 5. PKA activation results of representative newly discovered EPAC1 agonists. U2OS cells stably transfected with EPAC1 were treated with 100 µM of test compounds, cyclic nucleotide EPAC1 agonist 2 or 10 µM of forskolin and rolipram (F/R), cyclic AMP elevating agents, as a positive control. Active, phosphorylated VASP (P-VASP) was visualized using a phospho-specific, anti-VASP antibody. None of the test compounds promoted VASP phosphorylation in cells.
PKA and GPCR Selectivity. To investigate the EPAC selectivity of these EPAC agonists, compounds 25g, 25n and 25q were selected for further PKA activation studies, and the results are shown in FIG. 5. PKA activation was assessed by monitoring phosphorylation state of a downstream PKA effector, vasodilator-stimulated phosphoprotein (VASP).
as §1

Another assay has as its target T2, EPAC1-ΔDEP (aa. 149-881) (Homo sapiens, UniProt O95398).
T2 construct: EPAC1-ΔDEP (149-881); GST (N); made in house; host or cells: Escherichia coli BL21 Star (DE3)
T2 sequence (O95398 149-881 isoform O95398-3): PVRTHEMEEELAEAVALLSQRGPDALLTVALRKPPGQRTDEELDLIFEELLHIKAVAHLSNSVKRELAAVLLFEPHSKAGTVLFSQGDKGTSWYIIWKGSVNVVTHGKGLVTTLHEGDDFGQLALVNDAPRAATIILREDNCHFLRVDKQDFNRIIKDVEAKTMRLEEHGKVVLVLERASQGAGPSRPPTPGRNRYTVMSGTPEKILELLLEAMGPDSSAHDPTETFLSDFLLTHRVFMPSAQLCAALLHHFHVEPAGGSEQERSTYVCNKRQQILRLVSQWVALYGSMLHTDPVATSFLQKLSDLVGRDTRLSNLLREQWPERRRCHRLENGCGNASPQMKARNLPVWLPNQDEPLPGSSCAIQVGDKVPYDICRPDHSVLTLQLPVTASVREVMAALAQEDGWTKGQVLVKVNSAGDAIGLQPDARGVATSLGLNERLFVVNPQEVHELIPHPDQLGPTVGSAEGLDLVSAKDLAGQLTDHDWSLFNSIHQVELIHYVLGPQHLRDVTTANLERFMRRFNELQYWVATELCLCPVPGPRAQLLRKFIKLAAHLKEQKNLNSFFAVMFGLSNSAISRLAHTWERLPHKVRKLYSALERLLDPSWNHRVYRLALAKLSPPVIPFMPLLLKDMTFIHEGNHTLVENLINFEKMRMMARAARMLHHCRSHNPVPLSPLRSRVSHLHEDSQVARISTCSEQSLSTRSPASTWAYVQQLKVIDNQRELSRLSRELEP
The assay is described as follows: 8-NBD-cAMP competition binding assay, EPAC1-ΔDEP. Conditions: eleven-point dose-response 1-100 µM; mean ± SEM. The text has this:
Recombinant Protein Purification.
8-NBD-cAMP Competition Binding Assay.

The subject of the next assay is over 40 GPCR targets. The assay is described as follows: Counter screening over a panel of GPCR targets. Conditions: panel of over 40 GPCR proteins. The format is binding. On the technique in general: A counterscreen serves to expose hits that act by an unwanted route or on another target.
Assay [2] deals with T1, EPAC1. In words: Protein stability of EPAC1 in cells following long-term exposure. Conditions: compared with I942. The format is cell-based. More on the design: expressed in transfected cells; host or cells: U2OS cells (from Professor Holger Rehmann, University of Utrecht).

Take `COc1ccc(S(=O)(=O)NC(=O)COc2ccc3ccccc3c2)c(OC)c1` [Compound 25g, N-((2,4-Dimethoxyphenyl)sulfonyl)-2-(naphthalen-2-yloxy)acetamide]: the “EPAC1 immunoprecipitation with activation-selective antibody” value at EPAC1 [1] is “significant increases in EPAC1 immunoprecipitation”. The “PKA activation (VASP phosphorylation)” value in the assay on PKA was “did not induce any PKA activation”. For the same compound, the IC50 at EPAC1-ΔDEP (aa. 149-881) amounted to 4900 nM.
For the compound `COc1ccc2ccc(OCC(=O)NS(=O)(=O)c3ccc(N)cc3OC)cc2c1` [Compound 25n, N-((4-Amino-2-methoxyphenyl)sulfonyl)-2-((7-methoxynaphthalen-2-yl)oxy)acetamide], the “off-target effects towards GPCR proteins” value in the assay on over 40 GPCR targets was “none of them displays the potential off-target effects”. In addition, the “EPAC1 immunoprecipitation with activation-selective antibody” value at EPAC1 [1] is given as “significant increases in EPAC1 immunoprecipitation”. Further, the “tolerability in terms of protein stability of EPAC1 in cells” value at EPAC1 [2] is “better tolerated”. The “PKA activation (VASP phosphorylation)” value with PKA is listed as “did not induce any PKA activation”. This compound yielded an IC50 on EPAC1-ΔDEP (aa. 149-881) of 600 nM.
`COc1ccc2ccc(OCC(=O)NS(=O)(=O)c3ccc4ccccc4c3)cc2c1` [Compound 25q, 2-((7-Methoxynaphthalen-2-yl)oxy)-N-(naphthalen-2-ylsulfonyl)acetamide]: in the assay on over 40 GPCR targets, the “off-target effects towards GPCR proteins” value is reported as “none of them displays the potential off-target effects”. Moreover, the “EPAC1 immunoprecipitation with activation-selective antibody” value on EPAC1 [1] is recorded as “significant increases in EPAC1 immunoprecipitation”. For the same compound, the “PKA activation (VASP phosphorylation)” value with PKA was “did not induce any PKA activation”. Moreover, on EPAC1-ΔDEP (aa. 149-881), the IC50 worked out at 500 nM.
